How the values were obtained:
Format in all cases: biochemical
[1] = target: T1, c-Src kinase (Homo sapiens, UniProt P12931); assay: c-Src Kinase Assay; conditions: for inhibition at 2 µM: test concentration of 2 μM, read-out: c-Src percent inhibition
T1 construct: purchased Upstate Biotechnology, Lake Placid, N.Y
Experimental: A mixture of a 10× kinase buffer (80 mM MOPS at pH 7.0, 2 mM EDTA and 100 mM Magnesium Chloride), ATP (5 μM final from a 10 mM stock), a Cdc2 peptide KVEKIGEGTYVVYK (100 μM final from a 2.5 mM stock), γ-^33P ATP (10 μCi/μL stock) and water (20 μL/well) was added to each well of a Streptavidin Flashplate.
Test compound in 100% DMSO (0.5 μL) was added to the appropriate wells. Diluted c-Src kinase (human) (Upstate Biotechnology, Lake Placid, N.Y.) (diluted in a buffer consisting of 20 mM MOPS at pH 7.0, 1 mM EDTA, β-mercaptoethanol (0.1%), Brij-35 (0.01%), glycerol (5%) and 1 mg/mL bovine serum albumin) (2.5 μL) was added to the wells to initiate the reactions. The reaction plates were incubated at 30° C. for 40 min. The reaction was terminated by the addition of a 3% phosphoric acid solution (5 μL). The reaction product (10 μL) was spotted onto a P30 filtermat and washed for 5 minutes in phosphoric acid (75 mM). The wash sequence was repeated two more times, followed with one final wash in methanol. The plates were then dried, sealed and read on the TopCount scintillation counter after adding 30 μL scintillation fluid.
Percent inhibition was derived according to the procedure described in Example 2. For those compounds without an IC50, the percent inhibition results are shown at a test concentration of 2 μM.

[2] = target: T2, EGFR (Homo sapiens, UniProt P00533); assay: EGFR Kinase Assay; conditions: for inhibition at 2 µM: test concentration of 2 μM, read-out: EGFR percent inhibition
T2 construct: The intracellular portion of EGFR started at nucleotide 2189 (corresponding to amino acid 667) and ended at the termination codon; made in house; host or cells: Sf9 insect cells (baculovirus)
In short: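 GST-fused EGFR intracellular domain (aa 667 to end), Sf9-expressed, phosphorylating biotinylated polyGluTyr with 5 μM ATP plus γ-33P ATP in Tris pH 8.0, MgCl2, vanadate, 1 mM DTT; 1 h, 30 °C, streptavidin Flashplate scintillation read. Triplicate 16-point half-log series from 200 uM; IC50 from % inhibition vs log concentration, else % inhibition at 2 μM.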

[3] = target: T3, VEGF-R2 (Rattus norvegicus, UniProt O08775); assay: VEGF-R2 Screening Assay
T3 construct: polyhistidine (N)
T3 sequence (O08775 786-1343): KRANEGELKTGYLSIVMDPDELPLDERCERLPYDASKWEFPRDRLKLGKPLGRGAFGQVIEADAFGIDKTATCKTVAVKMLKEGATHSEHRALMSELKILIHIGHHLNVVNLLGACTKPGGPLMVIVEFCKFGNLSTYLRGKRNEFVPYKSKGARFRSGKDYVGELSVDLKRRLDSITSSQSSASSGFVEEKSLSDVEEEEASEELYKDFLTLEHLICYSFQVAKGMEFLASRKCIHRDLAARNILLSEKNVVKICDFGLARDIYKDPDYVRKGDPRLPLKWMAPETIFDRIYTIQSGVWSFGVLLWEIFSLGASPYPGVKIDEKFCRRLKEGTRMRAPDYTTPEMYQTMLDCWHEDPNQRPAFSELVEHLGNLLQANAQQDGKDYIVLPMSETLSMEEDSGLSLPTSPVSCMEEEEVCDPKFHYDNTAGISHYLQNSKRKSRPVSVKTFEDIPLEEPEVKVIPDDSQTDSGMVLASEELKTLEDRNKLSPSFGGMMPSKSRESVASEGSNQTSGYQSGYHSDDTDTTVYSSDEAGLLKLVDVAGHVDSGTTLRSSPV

T1 sequence (P12931 whole entry): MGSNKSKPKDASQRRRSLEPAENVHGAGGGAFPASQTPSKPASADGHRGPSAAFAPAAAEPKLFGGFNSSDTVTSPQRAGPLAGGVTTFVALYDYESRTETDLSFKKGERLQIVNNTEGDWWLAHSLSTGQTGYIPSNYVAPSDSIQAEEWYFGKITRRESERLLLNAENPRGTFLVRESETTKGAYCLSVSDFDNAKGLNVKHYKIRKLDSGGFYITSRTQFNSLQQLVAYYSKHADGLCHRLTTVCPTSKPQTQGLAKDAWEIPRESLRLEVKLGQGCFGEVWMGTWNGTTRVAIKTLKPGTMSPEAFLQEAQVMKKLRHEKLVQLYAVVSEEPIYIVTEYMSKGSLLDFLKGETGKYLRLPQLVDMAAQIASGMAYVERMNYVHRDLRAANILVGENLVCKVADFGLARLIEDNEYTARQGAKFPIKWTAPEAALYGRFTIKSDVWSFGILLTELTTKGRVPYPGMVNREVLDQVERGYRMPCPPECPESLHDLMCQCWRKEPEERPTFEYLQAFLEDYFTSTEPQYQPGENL
T2 sequence (P00533 669-1210 limits assumed): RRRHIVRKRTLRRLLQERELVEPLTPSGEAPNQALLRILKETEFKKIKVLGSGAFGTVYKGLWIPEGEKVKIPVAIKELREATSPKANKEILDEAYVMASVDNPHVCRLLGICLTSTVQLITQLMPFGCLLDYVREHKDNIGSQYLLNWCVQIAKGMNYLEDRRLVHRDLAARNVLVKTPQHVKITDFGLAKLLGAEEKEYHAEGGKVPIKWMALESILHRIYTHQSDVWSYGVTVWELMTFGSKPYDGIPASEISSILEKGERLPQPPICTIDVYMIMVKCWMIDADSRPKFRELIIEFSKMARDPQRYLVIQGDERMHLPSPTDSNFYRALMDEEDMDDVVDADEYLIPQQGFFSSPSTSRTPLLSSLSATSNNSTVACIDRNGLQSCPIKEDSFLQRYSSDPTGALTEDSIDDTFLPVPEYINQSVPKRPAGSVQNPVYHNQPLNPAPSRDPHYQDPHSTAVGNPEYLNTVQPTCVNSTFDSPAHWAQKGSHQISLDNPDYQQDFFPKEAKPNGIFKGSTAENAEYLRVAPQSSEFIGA

Row | Structure (SMILES) | IC50 [1] | inhibition at 2 µM [2] | IC50 [3] | inhibition at 2 µM [1] | IC50 [2]
1 | COc1cc(N2C(=O)Nc3c(C(=O)Nc4ccc(CN5CCOCC5)cc4)sc4ncc(C#N)c2c34)c(Cl)cc1Cl [Cpd 5, 6-cyano-5-(2,4-dichloro-5-methoxy-phenyl)-4-oxo-4,5-dihydro-3H-1-thia-3,5,8-triaza-acenaphthylene-2-carboxylic acid (4-morpholin-4-ylmethyl-phenyl)-amide] | 0.355 µM | 1% | > 100 µM |  | 
2 | COc1cc(N2C(=O)Nc3c(C(=O)Nc4ccc(CCN5CCOCC5)cc4)sc4ncc(C#N)c2c34)c(Cl)cc1Cl [Cpd 6, 6-cyano-5-(2,4-dichloro-5-methoxy-phenyl)-4-oxo-4,5-dihydro-3H-1-thia-3,5,8-triaza-acenaphthylene-2-carboxylic acid [4-(2-morpholin-4-yl-ethyl)-phenyl]-amide] | 0.368 µM | 7% | > 100 µM |  | 
3 | CCOC(=O)c1sc2nc(N3CCOCC3)c(C#N)c3c2c1NC(=O)N3c1c(Cl)ccc2c1OCO2 [Cpd 7, 5-(5-chloro-benzo[1,3]dioxol-4-yl)-6-cyano-7-morpholin-4-yl-4-oxo-4,5-dihydro-3H-1-thia-3,5,8-triaza-acenaphthylene-2-carboxylic acid ethyl ester] |  | -5% | > 100 µM | -1% | 
4 | N#Cc1c(N2CCOCC2)nc2sc(C(=O)Nc3ccc(CN4CCOCC4)cc3)c3c2c1N(c1c(Cl)ccc2c1OCO2)C(=O)N3 [Cpd 8, 5-(5-chloro-benzo[1,3]dioxol-4-yl)-6-cyano-7-morpholin-4-yl-4-oxo-4,5-dihydro-3H-1-thia-3,5,8-triaza-acenaphthylene-2-carboxylic acid (4-morpholin-4-ylmethyl-phenyl)-amide] |  | -6% | 14.1 µM | -21% | 
5 | Cc1nc2sc(C(=O)Nc3ccc(CN4CCOCC4)cc3)c3c2c(c1C#N)N(c1c(Cl)ccc2c1OCO2)C(=O)N3 [Cpd 9, 5-(5-chloro-benzo[1,3]dioxol-4-yl)-6-cyano-7-methyl-4-oxo-4,5-dihydro-3H-1-thia-3,5,8-triaza-acenaphthylene-2-carboxylic acid (4-morpholin-4-ylmethyl-phenyl)-amide] |  | 14% | > 10 µM | 11% | 
6 | CN1CCC(NC(=O)c2sc3ncc(C#N)c4c3c2NC(=O)N4c2c(Cl)ccc3c2OCO3)CC1 [Cpd 10, 5-(5-chloro-benzo[1,3]dioxol-4-yl)-6-cyano-4-oxo-4,5-dihydro-3H-1-thia-3,5,8-triaza-acenaphthylene-2-carboxylic acid (1-methyl-piperidin-4-yl)-amide] | 0.087 µM |  | ~100 µM |  | 3.96 µM
7 | CCOC(=O)c1sc2nc(O)c(C#N)c3c2c1NC(=O)N3c1ccncc1 [Cpd 14, 6-cyano-7-hydroxy-4-oxo-5-pyridin-4-yl-4,5-dihydro-3H-1-thia-3,5,8-triaza-acenaphthylene-2-carboxylic acid ethyl ester] |  | -9% | > 100 µM | 11% | 
8 | CCOC(=O)c1sc2nc(-c3cc(F)ccc3Cl)c(C#N)c3c2c1NC(=O)N3c1ccncc1 [Cpd 15, 7-(2-chloro-5-fluoro-phenyl)-6-cyano-4-oxo-5-pyridin-4-yl-4,5-dihydro-3H-1-thia-3,5,8-triaza-acenaphthylene-2-carboxylic acid ethyl ester] |  | 6% | > 100 µM | -0.6% | 
9 | CN(C)C1CCN(C(=O)c2sc3ncc(C#N)c4c3c2NC(=O)N4c2c(Cl)ccc3c2OCO3)CC1 [Cpd 41, 5-(5-chloro-benzo[1,3]dioxol-4-yl)-2-(4-dimethylamino-piperidine-1-carbonyl)-4-oxo-4,5-dihydro-3H-1-thia-3,5,8-triaza-acenaphthylene-6-carbonitrile] |  | 7% | > 100 µM |  | 
10 | COc1cc(NC(=O)c2sc3ncc(C#N)c4c3c2NC(=O)N4c2ccc(Oc3ccccc3)cc2)ccc1CN1CCOCC1 [Cpd 45, 6-cyano-4-oxo-5-(4-phenoxy-phenyl)-4,5-dihydro-3H-1-thia-3,5,8-triaza-acenaphthylene-2-carboxylic acid (3-methoxy-4-morpholin-4-ylmethyl-phenyl)-amide] |  |  | > 100 µM |  | 0.093 µM
11 | N#Cc1cnc2sc(C(=O)Nc3ccc(CCN4CCCCC4)cc3)c3c2c1N(c1ccc(Oc2ccccc2)cc1)C(=O)N3 [Cpd 48, 6-cyano-4-oxo-5-(4-phenoxy-phenyl)-4,5-dihydro-3H-1-thia-3,5,8-triaza-acenaphthylene-2-carboxylic acid [4-(2-piperidin-1-yl-ethyl)-phenyl]-amide] |  | 39% | > 100 µM |  | 
12 | N#Cc1cnc2sc(C(=O)Nc3ccc(CN4CCCCC4)cc3)c3c2c1N(c1ccc(Oc2ccccc2)cc1)C(=O)N3 [Cpd 49, 6-cyano-4-oxo-5-(4-phenoxy-phenyl)-4,5-dihydro-3H-1-thia-3,5,8-triaza-acenaphthylene-2-carboxylic acid (4-piperidin-1-ylmethyl-phenyl)-amide] |  |  | > 100 µM |  | 0.224 µM

Next, values leading:

Row | IC50 [1] | inhibition at 2 µM [2] | IC50 [3] | inhibition at 2 µM [1] | IC50 [2] | Structure (SMILES)
13 | 0.0574 µM | 36% | > 10 µM |  |  | N#Cc1cnc2sc(C(=O)Nc3ccc(CN4CCOCC4)cc3)c3c2c1N(c1c(Cl)ccc2c1OCO2)C(=O)N3 [Cpd 4, 5-(5-chloro-benzo[1,3]dioxol-4-yl)-6-cyano-4-oxo-4,5-dihydro-3H-1-thia-3,5,8-triaza-acenaphthylene-2-carboxylic acid (4-morpholin-4-ylmethyl-phenyl)-amide]
14 | 0.0712 µM |  | > 100 µM |  | 1.6 µM | N#Cc1cnc2sc(C(=O)Nc3ccc(CCN4CCCCC4)cc3)c3c2c1N(c1c(Cl)ccc2c1OCO2)C(=O)N3 [Cpd 11, 5-(5-chloro-benzo[1,3]dioxol-4-yl)-6-cyano-4-oxo-4,5-dihydro-3H-1-thia-3,5,8-triaza-acenaphthylene-2-carboxylic acid [4-(2-piperidin-1-yl-ethyl)-phenyl]-amide]
15 |  |  | > 100 µM | 91% | 2.7 µM | CN1CCN(CCc2ccc(NC(=O)c3sc4ncc(C#N)c5c4c3NC(=O)N5c3c(Cl)ccc4c3OCO4)cc2)CC1 [Cpd 12, 5-(5-chloro-benzo[1,3]dioxol-4-yl)-6-cyano-4-oxo-4,5-dihydro-3H-1-thia-3,5,8-triaza-acenaphthylene-2-carboxylic acid {4-[2-(4-methyl-piperazin-1-yl)-ethyl]-phenyl}-amide]
16 |  | 23% | > 10 µM | 78% |  | N#Cc1cnc2sc(C(=O)Nc3ccc(CCN4CCOCC4)cc3)c3c2c1N(c1c(Cl)ccc2c1OCO2)C(=O)N3 [Cpd 13, 5-(5-chloro-benzo[1,3]dioxol-4-yl)-6-cyano-4-oxo-4,5-dihydro-3H-1-thia-3,5,8-triaza-acenaphthylene-2-carboxylic acid [4-(2-morpholin-4-yl-ethyl)-phenyl]-amide]
17 |  | 38% | > 10 µM |  |  | COC1CCN(Cc2ccc(NC(=O)c3sc4ncc(C#N)c5c4c3NC(=O)N5c3c(Cl)ccc4c3OCO4)cc2)CC1 [Cpd 18, 5-(5-chloro-benzo[1,3]dioxol-4-yl)-6-cyano-4-oxo-4,5-dihydro-3H-1-thia-3,5,8-triaza-acenaphthylene-2-carboxylic acid [4-(4-methoxy-piperidin-1-ylmethyl)-phenyl]-amide]
18 |  |  | > 100 µM | 90% | 0.624 µM | CC1CCN(Cc2ccc(NC(=O)c3sc4ncc(C#N)c5c4c3NC(=O)N5c3c(Cl)ccc4c3OCO4)cc2)CC1 [Cpd 19, 5-(5-chloro-benzo[1,3]dioxol-4-yl)-6-cyano-4-oxo-4,5-dihydro-3H-1-thia-3,5,8-triaza-acenaphthylene-2-carboxylic acid [4-(4-methyl-piperidin-1-ylmethyl)-phenyl]-amide]
19 |  |  | > 100 µM |  | 0.85 µM | CN(C)C1CCN(Cc2ccc(NC(=O)c3sc4ncc(C#N)c5c4c3NC(=O)N5c3c(Cl)ccc4c3OCO4)cc2)CC1 [Cpd 42, 5-(5-chloro-benzo[1,3]dioxol-4-yl)-6-cyano-4-oxo-4,5-dihydro-3H-1-thia-3,5,8-triaza-acenaphthylene-2-carboxylic acid [4-(4-dimethylamino-piperidin-1-ylmethyl)-phenyl]-amide]
20 |  |  | > 100 µM |  | 0.152 µM | CC(C)(C)OC(=O)NC1CCN(Cc2ccc(NC(=O)c3sc4ncc(C#N)c5c4c3NC(=O)N5c3c(Cl)ccc4c3OCO4)cc2)CC1 [Cpd 46, [1-(4-{[5-(5-chloro-benzo[1,3]dioxol-4-yl)-6-cyano-4-oxo-4,5-dihydro-3H-1-thia-3,5,8-triaza-acenaphthylene-2-carbonyl]-amino}-benzyl)-piperidin-4-yl]-carbamic acid tert-butyl ester]

Source: US7427625B2, “Substituted thiatriazaacenaphthylene-6-carbonitrile kinase inhibitors” (Janssen Pharmaceutica, N.V., priority 2006, dated 2008)
